The values that follow come from patent publication US9883691B2, “Food and beverage products containing 1,3-propanediol and methods of modifying flavor release using 1,3-propanediol” (Kraft Foods Group Brands LLC, priority 2012, dated 2018).

The conditions of data set [1]: not marked (est); cited from earlier work.
Data set [2] can be described thus: PTR-MS real-time headspace release, watermelon flavor model in water (Example 1). It counts as physicochemical. Set-up: Sample A (PG) Mean / Sample B (1,3-propanediol) Mean: unit not given here. The protocol:
The impact of 1,3-propanediol on the release of flavor compounds can be analyzed by Proton Transfer Reaction Mass Spectrometry (PTR-MS; model TOF-8000 from Ionicon Analytik Inc.), where real-time headspace release of volatiles is measured. A sampling apparatus is needed in conjunction with the PTR-MS inlet to prevent variations caused by headspace kinetics. By one exemplary approach, the sampling apparatus includes a 4 ounce sample vessel equipped with a 2-hole lid which may be sealed by an adhesive film to allow equilibration. […]. The holes are equal sized (˜2 mm diameter) and match the outer diameter of the PTR-MS inlet line. The flow of the dilution gas into the vessel is regulated by the vacuum and proportional valve of the PTR-MS inlet system. The sample vessel has a base diameter of 47 mm and is 45 mm high, of which 8 mm of height is occupied by the sample in the vessel in these experiments. The 2 holes in the lid are equidistant from the edge of the vessel (˜20 mm) and about 30 mm from each other. The PTR-MS inlet is braced by clamps in a fixed position vertically above the laboratory bench (˜55 mm) and a silicone rubber depth gauge is affixed to the PTR-MS inlet tubing and set at 18 mm. The PTR-MS inlet is thus consistently oriented in a vertical position 18 mm below the inside lid of the vessel and 19 mm above the sample in the vessel. The sample vessel is then held in place during sampling according to the depth gauge on the inlet line and the vessel is subsequently supported on the bench by a 10 mm plastic spacer.
15 grams of the sample to be tested (e.g., food or beverage product containing 1,3-propanediol) are added to the vessel. The vessel is sealed and allowed to equilibrate at room temperature (˜22° C.) for 90 minutes. At the time of sampling, the seal is removed from both the sampling hole and the dilution gas hole in the lid and the vessel is immediately affixed to the PTR-MS inlet via the sampling hole. The real-time released flavor is measured from the headspace of the sample vessel for two minutes (according to the conditions listed in Table 1 below). A comparative sample is prepared that is otherwise identical to the test sample but contains propylene glycol or water instead of 1,3-propanediol. The comparative sample is then analyzed in triplicate by PTR-MS using the above-described procedure. The data can be analyzed using PTR-MS Viewer, Version 3.0.0.101 (Ionicon Analytik G.m.b.H). The point of maximum intensity for each compound of interest can be determined and recorded according to the PTR-MS Viewer software. The maximum intensity in counts over the timescale for each compound of interest can be used for data analysis as it reflects the static equilibrium headspace concentration in the system at the moment of seal removal. Due to the necessity of a dilution gas, the volatile concentration decreases over time as the compounds of interest re-equilibrate to a state of dynamic equilibrium in the headspace.
[…]. Sample A was prepared with 20 grams watermelon flavor concentrate and 80 grams propylene glycol. Sample B was prepared with 20 grams watermelon flavor concentrate and 80 grams 1,3-propanediol. Each of the samples was further diluted by adding 0.08 grams of each diluted concentrate to 99.92 grams water to provide a flavor water solution.
The diluted samples were analyzed by Proton Transfer Reaction Mass Spectrometry (PTR-MS; model TOF-8000 from Ionicon Analytik Inc.) for real-time headspace release volatiles measurement. Samples were analyzed in triplicate. […]. […].

Data set [3] is described as follows: PTR-MS headspace release in neat solvent, solvent/solvent experiment (Example 5). The conditions noted are these: 1.5 hrs equilibration; for Release Differences: 1,3-propanediol versus propylene glycol as sole solvent, 95% significance. Set-up: key to Release Differences: “Z” indicates that 1,3-propanediol had higher equilibrium maximum (meaning more of the flavor was released in 1,3-propanediol); “P” indicates that propylene glycol had higher equilibrium maximum; “-” indicates no statistical difference (95% significance) between the two samples. The data set is classed as physicochemical. The protocol:
[…]. Then the head space was analyzed as described above.
0.86 grams of the concentrate was added to 100 grams of either propylene glycol or 1,3-propanediol to provide a 1,3-propanediol diluted concentrate or propylene glycol diluted concentrate. The diluted concentrates were then further diluted as outlined in Table 10 below.
A 15 gram sample was weighed into a 4 oz vessel and analyzed at 1.5 hrs. of equilibration time as described in the method of Example 4.

A short description of data set [4]: PTR-MS headspace release with various non-aqueous liquids (diols) at 0.05:100 (Example 3). As to conditions: ratio 0.05:100; for PTR-MS headspace release in 1,3-butanediol: non-aqueous liquid 1,3-butanediol; for PTR-MS headspace release in 1,3-butanediol / PTR-MS headspace release in 1,3-propanediol / PTR-MS headspace release in 1,4-butanediol / PTR-MS headspace release in 1,7-heptanediol / PTR-MS headspace release in Propylene glycol: diluted in water; for PTR-MS headspace release in 1,3-propanediol: non-aqueous liquid 1,3-propanediol; for PTR-MS headspace release in 1,4-butanediol: non-aqueous liquid 1,4-butanediol; for PTR-MS headspace release in 1,7-heptanediol: non-aqueous liquid 1,7-heptanediol; for PTR-MS headspace release in Propylene glycol: non-aqueous liquid propylene glycol. The data set is classed as physicochemical. The protocol:
[…]. The flavoring was then diluted in water for analysis. The final concentration of each compound was held constant at 8 ppm except furfuryl mercaptan was included at 1.6 ppm to maintain a constant flavor level in the resulting beverage while the non-aqueous liquid varied but the ratio of each compound to non-aqueous liquid was held constant at 0.05:100. A variety of non-aqueous liquids were evaluated, including 1,4-butandiol; 1,7-heptandiol; 1,3-butandiol, propylene glycol, and 1,3-propanediol.
Samples were analyzed by PTR-MS as described in Example 1.
Percent suppression was calculated by the following formula: (I1-3-diol−Ialternate diol)/Ialternate diol×100.

Data set [5] is described as follows: PTR-MS headspace release from stored beverages, water/solvent experiment (Example 4). As to conditions: beverage stored refrigerated; 1.5, 24, 48 and 72 hours; Tukey-Kramer. The data set is classed as physicochemical. The protocol:
0.86 grams of the flavor concentrate was then added to 100 grams of either propylene glycol or 1,3-propanediol to provide diluted concentrates. […].
The beverages were then stored in sealed containers in a refrigerator. The container was opened five times over the course of the experiment and therefore represented a beverage in a sealed container being opened for multiple uses. 15 gram samples were weighed into a 4 ounce cup and analyzed at 1.5 hours, 24 hours, 48 hours, and 72 hours after storage.
The samples were analyzed in triplicate by PTR-MS as described below to determine impact of 1,3-propanediol or propylene glycol on release of the flavors from the beverage. The PTR-MS was performed as follows. A sampling apparatus was needed in conjunction with the PTR-MS inlet to prevent variations caused by headspace kinetics. The sampling apparatus used includes a 4 ounce sample vessel equipped with a 2-hole lid which may be sealed by an adhesive film to allow equilibration. […]. The holes were equal sized (˜2 mm diameter) and match the outer diameter of the PTR-MS inlet line. The flow of the dilution gas into the vessel was regulated by the vacuum and proportional valve of the PTR-MS inlet system. […] The 2 holes in the lid were equidistant from the edge of the vessel (˜20 mm) and ˜30 mm from each other. The PTR-MS inlet was braced by clamps in a fixed position vertically above the laboratory bench (˜55 mm) and a silicone rubber depth gauge was affixed to the PTR-MS inlet tubing and set at 18 mm. The PTR-MS inlet was consistently oriented in a vertical position […] below the inside lid of the vessel and 19 mm above the sample in the vessel. The sample vessel was then held in place during sampling according to the depth gauge on the inlet line and the vessel was subsequently supported on the bench by a 10 mm plastic spacer.
15 grams of the sample to be tested (e.g., food or beverage product containing 1,3-propanediol) are added to the vessel and the vessel is sealed and allowed to equilibrate at room temperature (˜22° C.) for 90 minutes. At the time of sampling, the seal was removed from both the sampling hole and the dilution gas hole in the lid and the vessel was immediately affixed to the PTR-MS inlet via the sampling hole. The real-time released flavor was measured from the headspace of the sample vessel for two minutes (according to the conditions listed in Table 1 above).
The data was analyzed using PTR-MS Viewer, Version 3.0.0.101 (Ionicon Analytik G.m.b.H). The point of maximum intensity for each compound of interest was determined and recorded according to the PTR-MS Viewer software. The maximum intensity in counts over the timescale for each compound of interest was used for data analysis as it reflected the static equilibrium headspace concentration in the system at the moment of seal removal. Due to the necessity of a dilution gas, the volatile concentration decreased over time as the compounds of interest re-equilibrated to a state of dynamic equilibrium in the headspace.
The statistical differences were determined by Tukey-Kramer Honest […]. […].

Data set [6] is described as follows: PTR-MS headspace release at various flavor compound to 1,3-propanediol or PG ratios (Example 2). It counts as physicochemical. As to conditions: for Percent Suppression by 1,3-propanediol: (IZ−IPG)/IPG×100. The protocol: The compounds listed below in Table 3 were added together to provide a liquid flavoring to analyze the role, if any, of the amount of 1,3-propanediol on flavor release. […] The amount of each flavor compound in the beverage was held constant at 8 ppm except furfuryl mercaptan was included at 1.6 ppm while the amount of propylene glycol or 1,3-propanediol varied.
The percent suppression was calculated using the following formula: (IZ−IPG)/IPG×100, where I is peak height, “Z” is 1,3-propanediol and “PG” is propylene glycol.

Where [7] appears, read: ratio 0.005:100, negative = suppressed vs PG.

“Also recorded” adds a separate entry of the source. Structures can show the parent of a compound that is named as a salt.

On to `CCOC=O` [Ethyl formate], for which, in data set [1], the “logP (o/w)” value was 0.23. Besides, the “Sample B (1,3-propanediol) Mean” value in data set [2] (PTR-MS headspace, watermelon flavor concentrate in 1,3-propanediol, diluted in water, 90 minutes equilibration, mean of three) worked out at 41.67. Also, in data set [2] (PTR-MS headspace, watermelon flavor concentrate in propylene glycol, diluted in water, 90 minutes equilibration, mean of three), the “Sample A (PG) Mean” value worked out at 50.50. Besides, in data set [2] (Sample B (1,3-propanediol) relative to Sample A (PG)), the “Percent Release Difference” value was −17.5%.
Turning to `C=C(C)[C@H]1CC=C(C)CC1` [Limonene], in data set [3], the “Release Differences” value is “Z” and the “release in 1,3-propanediol versus propylene glycol, solvent/solvent” value was “released faster in 1,3-propanediol”. In data set [4], the “PTR-MS headspace release in 1,3-butanediol” value came out at 13.5, the “PTR-MS headspace release in 1,3-propanediol” value was 4.9, the “PTR-MS headspace release in 1,4-butanediol” value is 59.7 and the “PTR-MS headspace release in 1,7-heptanediol” value worked out at 59.5. In data set [4], the “PTR-MS headspace release in Propylene glycol” value stood at 6.55 and the “Percent suppression by 1,3-butanediol relative to 1,4-butanediol” value was −343.5%. The “effect of 1,3-propanediol on flavor release relative to propylene glycol, water/solvent” value in data set [5] is “little effect; also recorded: no significant difference”. Further, in data set [6] (10% cut-off for significant difference, relative to PG), the “release suppressed in the presence of 1,3-propanediol” value is recorded as “suppressed”. The “Percent Suppression by 1,3-propanediol” value in data set [6] (setting [7]) is given as −0.1%. The “Percent Suppression by 1,3-propanediol” value in data set [6] (ratio 0.05:100) is given as −25.2%. In data set [6] (ratio 5:100), the “Percent Suppression by 1,3-propanediol” value is recorded as −34.8%. Besides, in data set [6] (ratio 15:100), the “Percent Suppression by 1,3-propanediol” value amounted to 23.5%.
`CCCCCCCCO` [Octanol]: in data set [3], the “Release Differences” value was “P” and the “release in 1,3-propanediol versus propylene glycol, solvent/solvent” value was “no significant difference”. In addition, in data set [4], the “PTR-MS headspace release in 1,3-butanediol” value was 4.0, the “PTR-MS headspace release in 1,3-propanediol” value was determined as 1.05, the “PTR-MS headspace release in 1,4-butanediol” value is given as 5.1 and the “PTR-MS headspace release in 1,7-heptanediol” value came out at 6.2. In addition, in data set [4], the “PTR-MS headspace release in Propylene glycol” value was 1.19 and the “Percent suppression by 1,3-butanediol relative to 1,4-butanediol” value is listed as −27.5%. The “effect of 1,3-propanediol on flavor release relative to propylene glycol, water/solvent” value in data set [5] is listed as “significantly suppressed release; also recorded: released faster in propylene glycol”. Further, the “Percent Suppression by 1,3-propanediol” value in data set [6] (setting [7]) was found to be 8.5%. Further, the “Percent Suppression by 1,3-propanediol” value in data set [6] (ratio 0.05:100) was −11.4%. For the same compound, the “Percent Suppression by 1,3-propanediol” value in data set [6] (ratio 5:100) is given as −19.1%. Further, the “Percent Suppression by 1,3-propanediol” value in data set [6] (ratio 15:100) is listed as −0.6%.
